These results are taken from US10308631B2, “Selective anti-cancer compounds” (NATIONAL UNIVERSITY OF SINGAPORE, priority 2015, dated 2019).

One data set concerns HeLa cells (LC3 puncta). Kind of data set: Immunofluorescence analysis of LC3 puncta. The data set is classed as cell-based, human. Particulars: 2.5 μM, 6 h. On the procedure: HeLa cells, treated with either Compound 1 (a131) at 2.5 μM or DMSO for 6 h, were fixed in ice-cold methanol and subjected to immunofluorescence analysis using antibodies against LC3 and counterstained with diamidino-2-phenylindole (DAPI) to visualize the nucleus. The Merge boxes show both LC3 and DAPI staining. The bars represent 5 μm in length.
To confirm the results of the immunoblot analysis and the lysosome-mediated autophagy activity, HeLa cervical cancer cells as cultured above were treated with Compound 1 (2.5 μM, DMSO) or DMSO as a control for 6 h. The treated cells were fixed in ice-cold methanol and subjected to immunofluorescence analysis using antibodies against LC3 and counterstained with diamidino-2-phenylindole (DAPI) to visualize the nucleus.

Data set [1] deals with cleaved PARP and caspase-3 in oncogene-transformed human fibroblast BJ cells. As to the kind of experiment: Immunoblot of cleaved PARP and cleaved caspase-3. In kind it is cell-based. Conditions: 2.5 and 5 μM, 48 h. On the procedure: (§1) FIGS. 5B, C provide a representation of an immunoblot analysis to examine the PARP or caspase-3 cleavage (B) and a histogram showing Caspase-3/7 activities, plotted as fold induction compared to DMSO-treated cells (C). BJ normal and transformed cells were treated with Compound 1 (a131) for 48 h. Cells were harvested and total lysates were analysed by detecting cleaved PARP or caspase-3 or caspase-3/7 activities as markers for apoptotic induction. […] Student's t-test was performed to determine the statistical significance (**=p<0.001, ***=p<0.0001, n.s.=no significance).
(§2) Whether Compound 1 (a131)-induced cancer cell-lethality was mediated by apoptosis or non-apoptotic programmed cell death was determined. For this purpose, isogenic non-transformed and oncogene-transformed human fibroblast BJ cell lines were cultured in DMEM supplemented with 10% FBS. The cells were treated with Compound 1 (2.5 μM and 5 μM, DMSO). 48 h after treatment, total cell lysates were prepared for immunoblot analysis using antibodies against cleaved PARP and cleaved caspase-3, well-known markers for apoptosis. In addition, a fraction of total cell lysates was also subjected to Caspase-3/7 Glo (Promega) assay to measure the combined activity of caspase 3/7. This was determined using caspase-Glo 3/7 Assay Kit (Promega) and its activity was normalized to a number of viable cells as determined by MTT assay.
For orientation: In western blotting, separated proteins are transferred to a membrane and probed.

In data set [2] the test system is caspase-3/7 activity in oncogene-transformed human fibroblast BJ cells. As to the kind of experiment: Caspase-3/7 Glo assay. Particulars: 2.5 and 5 μM, 48 h. The data set is classed as cell-based. As to the method:
as §1, §2

Data set [3] concerns non-transformed normal BJ cells. Kind of data set: Time-lapsed live cell analysis of mitotic progression (GFP-Histone H2B). In kind it is cell-based, human. Particulars: 2.5 μM, monitored every 10 min. On the procedure:
(§3) A: is a histogram showing isogenic non-transformed and oncogene-transformed BJ cells stably expressing GFP-tagged Histone H2B as a marker for chromosome segregation, treated with Compound 1 (a131) at 2.5 μM final concentration. Mitotic progression of these cells was monitored every 10 min. More than 100 cells per condition were quantified and classified into 3 groups: no, mild and severe mitotic defects with prolonged mitotic arrest, chromosome mis-segregation and failure in cytokinesis. […] The bars represent 5 μm in length. C: is a histogram showing quantification of defects in spindle formation and chromosome alignments (n>100 cells per condition).
(§4) Isogenic non-transformed and oncogene-transformed BJ cells stably expressing GFP-tagged Histone H2B as a marker for chromosome segregation were treated with Compound 1 at 2.5 μM final concentration. Mitotic progression of these cells was monitored every 10 min and images were acquired using a Super Resolution Microscope (Nikon) equipped with an iXon EM+ 885 EMCCD camera (Andor) mounted on a Nikon Eclipse Ti-E inverted microscope with a CFI Apo objective and a Stage Top Incubation with Digital CO2 mixer (Tokai). The images were processed with the NIS-Elements AR software. […]

Data set [4] concerns oncogene-transformed BJ cells. The description is as above. In kind it is cell-based, human. Particulars: 2.5 μM, monitored every 10 min. On the procedure: as §3, §4
A short description of another data set: Aqueous solubility. In kind it is physicochemical. Particulars: compared with Compound 1.

Consider `N#C/C(=C\c1cccc2cnccc12)c1c[nH]c2ccccc12` [Compound 1, (Z)-2-(1H-indol-3-yl)-3-(isoquinolin-5-yl)acrylonitrile], for which the LC3 puncta formation entry in the data set on HeLa cells (LC3 puncta) is given as “increased LC3 puncta formation”. The “levels of cleaved PARP and caspase-3” value in data set [1] was “markedly increased the levels of both cleaved PARP and caspase-3”. For the same compound, the caspase-3/7 activity result in data set [2] is reported as “significant induction of caspase-3/7 activity”. The mitotic defects result in data set [3] was “only induced a short period of mitotic arrest with mild mitotic defects”; in data set [4], “severe mitotic defects with prolonged mitotic arrest, chromosome mis-segregations and failure in cytokinesis”.
On to `CN1CCN(CC(=O)n2cc(/C(C#N)=C/c3cccc4cnccc34)c3ccccc32)CC1` [Compound 16, (Z)-3-(isoquinolin-5-yl)-2-(1-(2-(4-methylpiperazin-1-yl)acetyl)-1H-indol-3-yl)acrylonitrile], for which the aqueous solubility entry in “Aqueous solubility” is “improved aqueous solubility”.
